In PubChem BioAssay AID2060899 (Molecular Pharmacology Branch, DTP, NCI, 2025):

System: 565726-208-R1-J5-PDC complex spheroids, growth inhibition
Experiment: Anticancer human tumor 565726-208-R1-J5-PDC patient-derived pancreatic adenocarcinoma cell line growth inhibition [RAS]
Conditions: for IC50: curve of first compound; for viability, T/C: stronger effect = lower value
In short: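 Multi-cell-type spheroids: tumor cells plus HUVEC endothelial cells and mesenchymal stem cells. RAS-pathway inhibitors were combined with targeted agents, each dosed in half-log steps down from clinical Cmax, or from 10 microM when Cmax was unknown.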

[1] = second compound 0.0316 µM, first compound 0.00316 µM
[2] = second compound 0.0316 µM, first compound 0.01 µM
[3] = second compound 0.0316 µM, first compound 0.0316 µM
[4] = second compound 0.0316 µM, first compound 0.1 µM
[5] = second compound 0.0316 µM, first compound 0.316 µM
[6] = second compound 0.0316 µM, first compound 1 µM
[7] = second compound 0.1 µM, first compound 0.00316 µM
[8] = second compound 0.1 µM, first compound 0.01 µM
[9] = second compound 0.1 µM, first compound 0.0316 µM
[10] = second compound 0.1 µM, first compound 0.1 µM
[11] = second compound 0.1 µM, first compound 0.316 µM
[12] = second compound 0.1 µM, first compound 1 µM
[13] = second compound 0.316 µM, first compound 0.00316 µM
[14] = second compound 0.316 µM, first compound 0.01 µM
[15] = second compound 0.316 µM, first compound 0.0316 µM
[16] = second compound 0.316 µM, first compound 0.1 µM
[17] = second compound 0.316 µM, first compound 0.316 µM
[18] = second compound 0.316 µM, first compound 1 µM
[19] = second compound 1 µM, first compound 0.00316 µM
[20] = second compound 1 µM, first compound 0.01 µM
[21] = second compound 1 µM, first compound 0.0316 µM
[22] = second compound 1 µM, first compound 0.1 µM
[23] = second compound 1 µM, first compound 0.316 µM
[24] = second compound 1 µM, first compound 1 µM
[25] = second compound 3.16 µM, first compound 0.00316 µM
[26] = second compound 3.16 µM, first compound 0.01 µM
[27] = second compound 3.16 µM, first compound 0.0316 µM
[28] = second compound 3.16 µM, first compound 0.1 µM
[29] = second compound 3.16 µM, first compound 0.316 µM
[30] = second compound 3.16 µM, first compound 1 µM
[31] = second compound 10 µM, first compound 0.00316 µM
[32] = second compound 10 µM, first compound 0.01 µM
[33] = second compound 10 µM, first compound 0.0316 µM
[34] = second compound 10 µM, first compound 0.1 µM
[35] = second compound 10 µM, first compound 0.316 µM
[36] = second compound 10 µM, first compound 1 µM
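Further: spheroids exposed to compounds for seven days before readout.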
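Wherever viability, T/C is given: 100% = DMSO vehicle control viability.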

In the case of `Nc1ccn(C2OC(CO)C(O)C2(F)F)c(=O)n1` (stereo unspecified) + C#Cc1c(F)ccc2cc(O)cc(-c3ncc4c(N5CC6CCC(C5)N6)nc(OCC56CCCN5CC(F)C6)nc4c3F)c12, the IC50 (second compound 0.0316 µM) is reported as 92.8 nM, the IC50 (second compound 0.1 µM) is reported as 73.8 nM and the IC50 (second compound 0.316 µM) is reported as 273 nM. The IC50 (second compound 1 µM) was 63.3 nM, the IC50 (second compound 3.16 µM) was 37.5 nM and the IC50 (second compound 10 µM) was 30.3 nM. The viability, T/C [1] was 101%, the viability, T/C [2] was 123% and the viability, T/C [3] was 80.8%. It also gave a viability, T/C [4] of 53.5%, a viability, T/C [5] of 46.7% and a viability, T/C [6] of 43.4%. For the same molecule, the viability, T/C [7] was 112%, the viability, T/C [8] was 130% and the viability, T/C [9] was 64%. For the same molecule, the viability, T/C [10] was 54.6%, the viability, T/C [11] was 42.8% and the viability, T/C [12] was 37.5%. It also gave a viability, T/C [13] of 122%, a viability, T/C [14] of 133% and a viability, T/C [15] of 54.9%. The viability, T/C [16] was 61.1%, the viability, T/C [17] was 46.1% and the viability, T/C [18] was 41.1%. It also gave a viability, T/C [19] of 116%, a viability, T/C [20] of 110% and a viability, T/C [21] of 58.2%. For the same molecule, the viability, T/C [22] was 46%, the viability, T/C [23] was 47.8% and the viability, T/C [24] was 39%. The viability, T/C [25] was 117%, the viability, T/C [26] was 99.2% and the viability, T/C [27] was 51.1%. It also gave a viability, T/C [28] of 43.5%, a viability, T/C [29] of 41% and a viability, T/C [30] of 45.7%. It also gave a viability, T/C [31] of 82%, a viability, T/C [32] of 85.8% and a viability, T/C [33] of 48.6%. It also gave a viability, T/C [34] of 47%, a viability, T/C [35] of 48.8% and a viability, T/C [36] of 44.9%.
`C=CC(=O)Nc1cc(Nc2nccc(-c3cn(C)c4ccccc34)n2)c(OC)cc1N(C)CCN(C)C` + C#Cc1c(F)ccc2cc(O)cc(-c3ncc4c(N5CC6CCC(C5)N6)nc(OCC56CCCN5CC(F)C6)nc4c3F)c12 showed an IC50 (second compound 0.0316 µM) greater than 1000 nM, an IC50 (second compound 0.1 µM) greater than 1000 nM and an IC50 (second compound 0.316 µM) greater than 1000 nM. For the same molecule, the IC50 (second compound 1 µM) was greater than 1000 nM, the IC50 (second compound 3.16 µM) was greater than 1000 nM and the IC50 (second compound 10 µM) was 70.9 nM. For the same molecule, the viability, T/C [1] was 120%, the viability, T/C [2] was 139% and the viability, T/C [3] was 96.1%. The viability, T/C [4] was 101%, the viability, T/C [5] was 130% and the viability, T/C [6] was 103%. It also gave a viability, T/C [7] of 113%, a viability, T/C [8] of 144% and a viability, T/C [9] of 102%. For the same molecule, the viability, T/C [10] was 92.3%, the viability, T/C [11] was 121% and the viability, T/C [12] was 97.5%. For the same molecule, the viability, T/C [13] was 127%, the viability, T/C [14] was 130% and the viability, T/C [15] was 88.9%. The viability, T/C [16] was 77.6%, the viability, T/C [17] was 113% and the viability, T/C [18] was 98.1%. For the same molecule, the viability, T/C [19] was 138%, the viability, T/C [20] was 110% and the viability, T/C [21] was 76.7%. For the same molecule, the viability, T/C [22] was 68.1%, the viability, T/C [23] was 87.1% and the viability, T/C [24] was 84.7%. For the same molecule, the viability, T/C [25] was 120%, the viability, T/C [26] was 85.2% and the viability, T/C [27] was 65%. For the same molecule, the viability, T/C [28] was 51.2%, the viability, T/C [29] was 72% and the viability, T/C [30] was 74%. For the same molecule, the viability, T/C [31] was 89.4%, the viability, T/C [32] was 86.5% and the viability, T/C [33] was 64.1%. For the same molecule, the viability, T/C [34] was 41.2%, the viability, T/C [35] was 50.7% and the viability, T/C [36] was 40.1%.
In the case of `CCN1CCN(Cc2ccc(Nc3ncc(F)c(-c4cc(F)c5nc(C)n(C(C)C)c5c4)n3)nc2)CC1` + C=CC(=O)N1CCN(c2nc(OCC3CCCN3C)nc3c(F)c(-c4nc(N)cc(C)c4C(F)(F)F)c(Cl)cc23)C(C)C1, the IC50 (second compound 0.00316 µM) is reported as greater than 1000 nM, the IC50 (second compound 0.01 µM) is reported as greater than 1000 nM and the IC50 (second compound 0.0316 µM) is reported as greater than 1000 nM. It also gave an IC50 (second compound 0.1 µM) greater than 1000 nM, an IC50 (second compound 0.316 µM) greater than 1000 nM and an IC50 (second compound 1 µM) greater than 1000 nM. For the same molecule, the viability, T/C (second compound 0.00316 µM, first compound 0.00316 µM) was 92.8%, the viability, T/C (second compound 0.00316 µM, first compound 0.01 µM) was 137% and the viability, T/C (second compound 0.00316 µM, first compound 0.0316 µM) was 93.5%. For the same molecule, the viability, T/C (second compound 0.00316 µM, first compound 0.1 µM) was 72.2%, the viability, T/C (second compound 0.00316 µM, first compound 0.316 µM) was 82.8% and the viability, T/C (second compound 0.00316 µM, first compound 1 µM) was 119%. For the same molecule, the viability, T/C (second compound 0.01 µM, first compound 0.00316 µM) was 101%, the viability, T/C (second compound 0.01 µM, first compound 0.01 µM) was 134% and the viability, T/C (second compound 0.01 µM, first compound 0.0316 µM) was 98.2%. For the same molecule, the viability, T/C (second compound 0.01 µM, first compound 0.1 µM) was 63%, the viability, T/C (second compound 0.01 µM, first compound 0.316 µM) was 79.2% and the viability, T/C (second compound 0.01 µM, first compound 1 µM) was 119%. For the same molecule, the viability, T/C [1] was 163%, the viability, T/C [2] was 144% and the viability, T/C [3] was 109%. It also gave a viability, T/C [4] of 77.1%, a viability, T/C [5] of 61% and a viability, T/C [6] of 103%. The viability, T/C [7] was 135%, the viability, T/C [8] was 124% and the viability, T/C [9] was 83.1%. For the same molecule, the viability, T/C [10] was 87.4%, the viability, T/C [11] was 61.1% and the viability, T/C [12] was 118%. The viability, T/C [13] was 141%, the viability, T/C [14] was 136% and the viability, T/C [15] was 85%. The viability, T/C [16] was 100%, the viability, T/C [17] was 58.8% and the viability, T/C [18] was 116%. It also gave a viability, T/C [19] of 117%, a viability, T/C [20] of 129% and a viability, T/C [21] of 89.5%. For the same molecule, the viability, T/C [22] was 66%, the viability, T/C [23] was 78.2% and the viability, T/C [24] was 110%.
